Molecular target: Serine/threonine-protein kinase WNK2 (Homo sapiens) (UniProt Q9Y3S1)
Assay: Inhibition of Wnk2 ATP binding site (GSFKTVYK) in human PBMC at 1 uM

Chain of Serine/threonine-protein kinase WNK2 (Homo sapiens) (Q9Y3S1 whole entry): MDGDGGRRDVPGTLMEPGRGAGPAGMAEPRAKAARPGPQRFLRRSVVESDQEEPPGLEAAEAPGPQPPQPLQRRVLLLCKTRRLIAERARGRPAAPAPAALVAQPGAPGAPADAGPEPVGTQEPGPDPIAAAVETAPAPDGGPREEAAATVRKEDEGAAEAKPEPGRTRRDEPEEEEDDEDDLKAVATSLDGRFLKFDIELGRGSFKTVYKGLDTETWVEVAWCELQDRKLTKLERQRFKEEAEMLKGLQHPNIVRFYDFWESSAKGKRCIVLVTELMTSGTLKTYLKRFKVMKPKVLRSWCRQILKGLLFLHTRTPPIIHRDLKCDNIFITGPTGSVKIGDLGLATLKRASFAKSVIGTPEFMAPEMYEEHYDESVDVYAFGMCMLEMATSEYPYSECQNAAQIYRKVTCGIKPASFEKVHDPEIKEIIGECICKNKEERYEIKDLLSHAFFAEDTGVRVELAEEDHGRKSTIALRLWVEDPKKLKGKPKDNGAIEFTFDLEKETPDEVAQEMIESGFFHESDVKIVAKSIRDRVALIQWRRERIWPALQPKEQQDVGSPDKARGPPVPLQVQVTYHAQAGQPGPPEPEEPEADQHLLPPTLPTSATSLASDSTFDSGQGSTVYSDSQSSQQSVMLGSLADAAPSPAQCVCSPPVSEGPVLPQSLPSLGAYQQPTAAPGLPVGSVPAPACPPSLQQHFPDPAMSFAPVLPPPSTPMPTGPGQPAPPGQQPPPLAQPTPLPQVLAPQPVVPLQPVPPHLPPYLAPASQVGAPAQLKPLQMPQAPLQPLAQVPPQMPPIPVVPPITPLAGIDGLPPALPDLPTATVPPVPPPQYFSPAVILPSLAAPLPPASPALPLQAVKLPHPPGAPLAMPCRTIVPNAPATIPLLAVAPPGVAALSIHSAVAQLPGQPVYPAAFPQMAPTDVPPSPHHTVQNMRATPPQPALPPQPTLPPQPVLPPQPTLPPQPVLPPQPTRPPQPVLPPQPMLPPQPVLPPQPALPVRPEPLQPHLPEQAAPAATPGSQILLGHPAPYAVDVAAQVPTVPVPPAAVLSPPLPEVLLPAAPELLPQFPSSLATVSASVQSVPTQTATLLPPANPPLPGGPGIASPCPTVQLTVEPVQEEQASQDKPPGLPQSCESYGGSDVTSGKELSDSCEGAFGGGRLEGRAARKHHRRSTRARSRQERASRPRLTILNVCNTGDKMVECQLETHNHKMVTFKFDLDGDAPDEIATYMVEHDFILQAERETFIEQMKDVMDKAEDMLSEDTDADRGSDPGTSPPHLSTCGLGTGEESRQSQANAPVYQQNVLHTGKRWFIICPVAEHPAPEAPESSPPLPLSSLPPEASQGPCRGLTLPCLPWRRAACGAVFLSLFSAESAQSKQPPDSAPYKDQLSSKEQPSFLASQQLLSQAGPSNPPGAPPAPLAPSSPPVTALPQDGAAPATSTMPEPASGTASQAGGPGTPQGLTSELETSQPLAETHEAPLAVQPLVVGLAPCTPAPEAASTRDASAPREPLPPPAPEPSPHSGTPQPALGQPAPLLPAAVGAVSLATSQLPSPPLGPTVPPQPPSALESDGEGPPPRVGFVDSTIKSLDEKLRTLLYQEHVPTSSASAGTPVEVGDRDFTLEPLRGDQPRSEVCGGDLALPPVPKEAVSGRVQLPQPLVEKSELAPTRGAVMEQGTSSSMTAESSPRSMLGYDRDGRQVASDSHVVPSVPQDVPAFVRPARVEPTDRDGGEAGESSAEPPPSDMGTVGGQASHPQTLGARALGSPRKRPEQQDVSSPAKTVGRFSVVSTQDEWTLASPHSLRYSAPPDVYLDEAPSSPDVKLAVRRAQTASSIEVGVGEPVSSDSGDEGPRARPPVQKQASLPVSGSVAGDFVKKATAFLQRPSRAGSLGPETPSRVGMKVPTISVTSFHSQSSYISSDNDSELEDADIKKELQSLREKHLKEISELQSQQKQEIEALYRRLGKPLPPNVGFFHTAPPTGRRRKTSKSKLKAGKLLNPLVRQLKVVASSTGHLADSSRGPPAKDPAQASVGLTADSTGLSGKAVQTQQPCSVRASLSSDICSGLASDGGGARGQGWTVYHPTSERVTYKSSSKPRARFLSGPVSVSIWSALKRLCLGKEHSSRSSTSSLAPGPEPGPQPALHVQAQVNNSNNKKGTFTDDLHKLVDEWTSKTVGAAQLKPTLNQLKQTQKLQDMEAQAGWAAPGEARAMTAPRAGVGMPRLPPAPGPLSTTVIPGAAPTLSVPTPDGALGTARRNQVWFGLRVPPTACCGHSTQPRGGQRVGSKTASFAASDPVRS

CC(C)n1cc(-c2cc(-c3ccc(CN4CCOCC4)cc3)cnc2N)nn1
inhibition: 14.2%
